Measurements from patent publication US9670213B2, “Pteridine ketone derivative and applications thereof as EGFR, BLK, and FLT3 inhibitor” (EAST CHINA UNIVERSITY OF SCIENCE AND TECHNOLOGY, priority 2012, dated 2017).

Target: FLT3 (Homo sapiens (Human), UniProt P36888)
Assay: FLT3 kinase activity assay (Caliper)
Format: biochemical
Conditions: read-out: Inhibitory activity on kinase (IC50, nM) FLT3

Sequence of FLT3 (P36888 27-993): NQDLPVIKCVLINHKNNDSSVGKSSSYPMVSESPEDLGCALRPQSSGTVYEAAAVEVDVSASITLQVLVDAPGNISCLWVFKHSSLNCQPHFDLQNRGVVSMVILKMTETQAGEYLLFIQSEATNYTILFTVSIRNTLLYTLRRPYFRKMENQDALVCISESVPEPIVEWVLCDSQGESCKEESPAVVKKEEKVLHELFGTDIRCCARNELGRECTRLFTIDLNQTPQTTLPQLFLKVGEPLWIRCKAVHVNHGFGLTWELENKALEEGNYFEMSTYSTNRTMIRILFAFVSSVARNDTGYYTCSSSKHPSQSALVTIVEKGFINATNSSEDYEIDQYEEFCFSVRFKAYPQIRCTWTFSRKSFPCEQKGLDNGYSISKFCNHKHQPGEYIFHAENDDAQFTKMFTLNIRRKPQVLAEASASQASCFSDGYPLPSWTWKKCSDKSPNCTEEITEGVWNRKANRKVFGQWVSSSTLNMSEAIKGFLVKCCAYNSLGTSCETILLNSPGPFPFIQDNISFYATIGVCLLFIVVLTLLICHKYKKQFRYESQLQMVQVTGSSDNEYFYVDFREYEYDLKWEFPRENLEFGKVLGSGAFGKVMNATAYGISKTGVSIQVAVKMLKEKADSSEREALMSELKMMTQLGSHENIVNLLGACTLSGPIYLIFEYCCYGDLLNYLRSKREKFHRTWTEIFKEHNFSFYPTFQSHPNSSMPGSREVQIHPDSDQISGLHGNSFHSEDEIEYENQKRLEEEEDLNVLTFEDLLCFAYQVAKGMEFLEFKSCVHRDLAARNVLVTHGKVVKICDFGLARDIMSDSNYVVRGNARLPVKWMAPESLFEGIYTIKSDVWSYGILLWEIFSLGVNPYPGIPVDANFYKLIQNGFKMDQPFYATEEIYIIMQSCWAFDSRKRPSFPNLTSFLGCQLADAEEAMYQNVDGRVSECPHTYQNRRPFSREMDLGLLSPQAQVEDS

SMILES	IC50 [nM]
C=CC(=O)Nc1cccc(-n2c(=O)cnc3cnc(Nc4ccc(N5CCN(C)CC5)cc4)nc32)c1 [Compound 020, N-(3-(2-(4-(4-methyl-1-piperazinyl)-phenylamino)-7-oxo-8(7H)-pteridin-yl)phenyl) acrylamide]	322
C=CC(=O)Nc1cccc(-n2c(=O)cnc3cnc(Nc4ccc(N5CCN(C)CC5)cc4OC)nc32)c1 [Compound 032, N-(3-(2-(2-methoxy-4-(4-methyl-1-piperazinyl)-phenylamino)-7-oxo-8(7H)-pteridin-yl)phenyl)acrylamide]	1170
